A short description of data set [1]: Stability of the solid form on storage at different temperatures and humidities, open or closed containers. The data set is classed as physicochemical. The conditions noted are these: for Stability, summary in words: various conditions of temperature, humidity and container. An excerpt:
The stability of ivabradine adipate in comparison to ivabradine hydrochloride form I was investigated at different temperatures and humidities in open or closed containers for different storage times.

The conditions of data set [2]: under physiological conditions; cited from earlier work.

Counter-ions that a name gives are not always drawn. Where only a bound is given, the exact number is not on record here.

Take `COc1cc2c(cc1OC)CC(=O)N(CCCN(C)C[C@H]1Cc3cc(OC)c(OC)cc31)CC2` [Ivabradine HCl form I, Ivabradine HCl]: the “Stability (solid form after storage)” value is given as “unchanged” in data set [1] (25° C./60% closed, 33 d); “β + unident” in data set [1] (25° C./60% open, 33 d); “unchanged” in data set [1] (30° C./65% closed, 33 d); “β” in data set [1] (30° C./65% open, 33 d); “unchanged” in data set [1] (40° C./75% closed, 33 d); “β” in data set [1] (40° C./75% open, 33 d). The “Stability, summary in words” value in data set [1] (HCl) is “undergoes phase transition into Ivabradine HCl, form beta”.

`COc1cc2c(cc1OC)CC(=O)N(CCCN(C)C[C@H]1Cc3cc(OC)c(OC)cc31)CC2` [Ivabradine adipate, Ivabradine Adipate]: the “Stability (solid form after storage)” value is given as “unchanged” in data set [1] (25° C./60% closed, 57 d); “unchanged” in data set [1] (25° C./60% open, 57 d); “unchanged” in data set [1] (30° C./65% closed, 57 d); “unchanged” in data set [1] (30° C./65% open, 57 d); “unchanged” in data set [1] (40° C./75% closed, 57 d); “unchanged” in data set [1] (40° C./75% open, 57 d). For the same molecule, the “Stability, summary in words” value in data set [1] was “stable”.

Regarding `COc1cc2c(cc1OC)CC(=O)N(CCCN(C)C[C@H]1Cc3cc(OC)c(OC)cc31)CC2` [Ivabradine, (S)-3-{3-[(3,4-dimethoxybicyclo[4.2.0]octa-1,3,5-trien-7-ylmethyl)methylamino]propyl}-7,8-dimethoxy-2,3,4,5-tetrahydro-1H-3-benzazepin-2-one], in data set [2], the water solubility was greater than 10000 µg/mL.

The values above are taken from patent publication US20140357860A1, “SALT OF IVABRADINE WITH ADIPIC ACID” (ratiopharm GmbH, priority 2010, published 2014).
